Experiments:
[1] = test system: S. thermophilus CS1980 cells; assay: Lactose hydrolysis by permeabilized S. thermophilus CS1980 cells; assay type: cell-based, Streptococcus thermophilus; conditions: for effectiveness in cell permeabilization: 100 mg/L agent, 100 mg/l S. thermophilus cells, POM buffer
Experimental: S. thermophilus strains were grown in 500-ml Erlenmeyer flasks containing 200 mL of medium at 37° C. for 16 h without agitation. 2 mL of an overnight culture was used as inoculum. Cells were collected by centrifugation at 10,000×g for 10 min at 4° C., washed once with sterile POM buffer (50 mM K2HPO4/KH2PO4, 1 mM MgCl2, pH 7.4) and finally re-suspended in POM buffer to an optical density (OD600) of 0.3, corresponding to approximately 0.1 g/L (dry weight basis). For permeabilization, cell suspensions were dispensed into sterile tubes (1 mL per tube) and centrifuged in a microcentrifuge at 10,000×g for 5 min at 4° C. After decanting the supernatants, cell pellets were resuspended in 1 mL POM buffer containing different concentrations (10 mg/l and 100 mg/l) of monolaurin (Toronto Research Chemicals, Toronto, Canada), and were maintained for 10 min at 28° C. Non permeabilized cells in POM buffer were used as control. 100 mg/l of monomyristin was also tested as premeabilization agent. The cells were resuspended in POM buffered lactose (50 g/L) solution. The hydrolysis was carried out at 50° C. for 2 h. The concentration of lactose, glucose and galactose was determined on an Ultimate 3000 high-performance liquid chromatography (HPLC) system (Dionex) equipped with an Aminex HPX-87H column (Bio-Rad) and a Shodex RI-101 detector (Showa Denko K.K.). The column oven temperature was set to 60° C., and the mobile phase consisted of 5 mM H2SO4. The flow rate used was 0.5 mL/min.

S. thermophilus CS1980 [2] = assay: Lactose hydrolysis: monolaurin- versus ethanol-permeabilized cells; assay type: cell-based, Streptococcus thermophilus; conditions: for stability of the whole-cell catalyst: 100 μg/ml monolaurin or 45% (v/v) ethanol, 10 min at 28° C.
Experimental: S. thermophilus CS1980 was permeabilized for 10 minutes at 28° C. using (i) 100 μg/ml monolaurin in POM buffer or (ii) 45% (v/v) ethanol for 10 minutes, or (iii) not permeabilized (control). Hydrolysis of lactose in POM buffer (50 g/l lactose) at 50° C. was carried out at a cell concentration of approximately 100 mg/l.

[3] = test system: Lactococcus lactis biovar. diacetylactis RD1M5 cells; assay: Acetoin production from pyruvate by permeabilized RD1M5 cells; assay type: cell-based; conditions: 100 mg/L monolaurin, 20 min at 30° C.; 700 mg/L cells, 100 mM pyruvate, 1 h
Experimental: Lactococcus lactis biovar. diacetylactis RD1M5 was permeabilized as described in example 1.2, using 100 mg/L monolaurin for 20 min at 30° C. 700 mg/L cells were suspended in POM buffer solution with 100 mM pyruvate. After 1 h, the cells were removed and the supernatant was used to quantify the acetoin concentration. Quantification of lactose, lactate, acetoin, and citrate were carried out using an Ultimate high-performance liquid chromatography system equipped with a Aminex HPX-87H column (300×7.8 mm column) (Bio-Rad, Hercules, USA) and a Shodex RI-101 refractive index detector (Showa Denko K.K., Tokyo, Japan). The mobile phase was 5 mM H2SO4 with a flow rate of 0.5 mL/min and the column oven temperature was maintained at 60° C.

S. thermophilus CS1980 [4] = assay: Permeabilization of S. thermophilus CS1980 at different temperatures; assay type: cell-based, Streptococcus thermophilus; conditions: permeabilization temperatures 20-50° C.
Experimental: […] Controls are prepared without addition of monolaurin in the permeabilization step. Hydrolysis of lactose by monolaurin-treated cells is carried out in a POM buffered solution.

## CCCCCCCCCCCCCC(=O)OCC(O)CO (stereo not drawn) [Monomyristin, monomyristin]
[1]
  effectiveness in cell permeabilization: same effectiveness in cell permeabilization as monolaurin

## CCO [ethanol, reference compound]
S. thermophilus CS1980 [2]
  stability of the whole-cell catalyst: compromised the stability of the whole-cell catalyst

## CCCCCCCCCCCC(=O)OCC(O)CO (stereo not drawn) [monolaurin]
[3]
  acetoin produced from pyruvate compared to non-treated cells: much higher concentrations of acetoin
[1]
  effectiveness in cell permeabilization: efficiently permeabilizes the cells
[1]; cells permeabilized 10 min at 28° C., 50 g/L lactose, 2 hours at 50° C., 100 mg/L cells (dry weight)
  lactose hydrolyzed by permeabilized cells: 55%
[1]; too low monolaurin concentration (10 mg/l tested), 50 g/L lactose, 50° C.
  hydrolysis by cells treated with too low monolaurin concentration: neglectable
S. thermophilus CS1980 [4]
  efficiency of permeabilization over temperature range: equally efficient
S. thermophilus CS1980 [2]
  stability of the whole-cell catalyst: higher stability
S. thermophilus CS1980 [2]; permeabilized 10 min at 28° C., 100 μg/ml monolaurin, 50 g/l lactose, 50° C., about 100 mg/l cells
  lactose conversion by permeabilized cells: perform better than the control as well as the ethanol-permeabilized cells

Reference: patent US20230157308A1, “PERMEABILIZED MICROBIAL CELL CATALYSTS” (DANMARKS TEKNISKE UNIVERSITET, priority 2020, published 2023)
